Measurements from patent US11504431B2, “Formulations for the suprachoroidal space of an eye and methods” (Emory University, priority 2016, dated 2022).

Experiments:
[1] = value assumed or taken from literature; cited from earlier work
SCS of live rabbits [2] = conditions: New Zealand White, rabbit, in vivo, 3 min
rabbit SCS in vivo [3] = test: Clearance of fluorescein from the SCS by fundus microscopy, effect of liquid formulation; set-up: species or system New Zealand White rabbit
Procedure: After injection of a formulation into the SCS of an anesthetized rabbit, U/S B-scan was used to determine SCS thickness at multiple locations over time, from which the rate of SCS collapse was calculated, as shown at FIG. 9. In companion experiments, the approximate clearance rate of injected fluorescent material from the SCS was found by taking fluorescence fundus images in the rabbit eye in vivo over time until fluorescence was no longer visible.
Also investigated was the effect of liquid formulation viscosity on the timescale of clearance of fluorescein from the SCS. Using fundus microscopy, the time it took for there to be no visual evidence of fluorescein in the SCS was identified. […] This was likely due to the long-lived presence of viscous CMC gel in the SCS (as evidenced by the SCS remaining open for many days), which can slow diffusion of fluorescein out of the SCS.

[4] = system: SCS of rabbit eyes ex vivo; test: Ex vivo SCS microneedle injection, flat mount of 2D circumferential spread; set-up: species or system New Zealand White rabbit; conditions: in HBSS with 0.2 μm red-fluorescent particles, 25-150 μL, 3 minutes post-injection, mean±SEM
Procedure: Extraocular tissues were carefully removed from the rabbit ocular globe. To simulate a physiological intraocular pressure (IOP) of 10-12 mmHg, a water column was raised to ˜14 cm and connected to the eye via a 25-gauge needle penetrated through the optic nerve. A microneedle (750 μm in length, 33-gauge; Clearside Biomedical, Alpharetta, Ga.) attached to a 250 μL glass chromatography syringe (National Scientific, Rockwood, Tenn.) was used to make injections.
Depending on the experimental condition, each injection consisted of 25 to 150 μL of 0.5% (w/v) red-fluorescent particles (0.2 μm diameter; Excitation: 580 nm; Emission: 605 nm) and 0.025% (w/v) fluorescein suspended in Hank's Balanced Salt Solution (HBSS; Gibco, Life Technologies). After each injection, the needle was held in place for 1 minute to minimize reflux. The eye was then frozen via submersion in 100% ethanol chilled over dry ice 3 minutes post-injection depending on experimental condition.
After SCS injection and freezing, eyes were prepared to assess the 2D spread of particles and fluorescein. […]
A digital SLR camera (Canon 60D, Canon, Melville, N.Y.) with a 100 mm lens (Canon) was used to acquire brightfield and fluorescence images. […] The area of green and red fluorescence that was above threshold was calculated for each eye using ImageJ (National Institutes of Health, Bethesda, Md.). […]

SCS of live rabbits [5] = test: Collection of fluorescein by different clearance routes after SCS injection; type: in vivo, New Zealand White rabbit; conditions: one hour post-injection
Procedure: To assess contributions of different routes of clearance, fluorescein from multiple collection sites was collected after SCS injection in vivo. The fluorescein collected from these collection sites was determined over time. The amount of fluorescein leaving through the injection site was found by subtracting site [i] from site [ii] (i.e., difference in fluorescein collected from sclera anterior to the equator without and with injection site plugged). And the amount of fluorescein leaving through blood was found by subtracting site [iv] from site [iii] (i.e., difference in fluorescein collected from sclera posterior to the equator with and without the vortex vein transected). Though the physiological data are inherently noisy, they should nevertheless enable an order of magnitude characterization of the underlying processes (which can be compared to a theoretical model of transport below). The amount of fluorescein collected over time is depicted at FIG. 17.
For this terminal experiment, the rabbit (N=4 eyes per group) was anesthetized with a subcutaneous injection of ketamine/xylazine before microneedle injection; additional injections were given every 30 minutes to maintain anesthesia. Subcutaneous injection of 60 mL saline was also given on the rump to counteract fluid loss. The amount of fluorescein exiting the eye was determined by collecting samples over time from [i] sclera anterior to the equator; [ii] anterior sclera with injection site plugged; [iii] sclera posterior to the equator; and [iv] posterior sclera with vortex vein transected.
Prior to microneedle injection, the supranasal conjunctiva was dissected off the sclera. […] In [i] anterior sclera and [iii] posterior sclera conditions, samples were collected for 1 hour by swabbing the space with a 1 cm×1 cm paper tissue (Kimwipe, Kimberley-Clark, Irving, Tex.). Care was taken to swab only anterior or posterior to the equator, depending on the condition. The tissue was then placed in 1 mL HBSS until analysis.
To determine the amount of fluorescein leaving [ii] the anterior sclera with injection site plugged, a similar experiment was performed. Immediately post-injection, the injection site was plugged by sealing the microneedle into sclera with cyanoacrylate glue (Loctite 4013, Düsseldorf, Germany). Other methods were the same as above.
Heparin (5 mL of 10,000 IU/mL; Hospira, Lake Forest, Ill.) was given intravenously prior to the start of the experiment to prevent coagulation. […] A transfer pipette was used to collect blood exiting the vortex vein for 1 hour. The volume of collected blood was recorded, and HBSS was added to reach a final volume of 2 mL per sample for analysis.
Immediately after the last time point, all animals were euthanized by injection of pentobarbital through the marginal ear vein. Eyes were enucleated to determine the amount of fluorescein remaining (i) within the tissue (including SCS), and (ii) in aqueous humor, vitreous humor, and lens. The Kimwipe paper tissue and ocular tissue samples were placed in HBSS at 4° C. for 2 days to allow fluorescein to diffuse out and equilibrate with the HBSS. The amount of fluorescein in all samples was measured using a multi-plate reader (Excitation: 494 nm, Emission: 521 nm, Synergy H4, BioTek, Winooski, Vt.). In a separate experiment involving incubation of Kimwipes in a known amount of fluorescein, we found no evidence of loss in extracting fluorescein from the Kimwipe, and no leaching of fluorescent species out of the Kimwipe.

SCS of live rabbits [6] = test: SCS clearance kinetics by fundus imaging
rabbit SCS in vivo [7] = test: In vivo SCS injection, RetCam fluorescence fundus imaging of area coverage and co-localization; set-up: species or system New Zealand White rabbit
Text: Also investigated was the role of formulation and time on particle distribution in the SCS. The distribution of red-fluorescent particles suspended with green fluorescently-tagged formulation excipients in HBSS after injection into the SCS of live rabbits was imaged using red and green fluorescence simultaneously. Fluorescence was imaged using RetCam imaging, which was preferred to other non-contact fundus imaging methods, since it enabled visualization of the posterior pole as well as the far periphery (i.e., the injection site). The percentage of the SCS area in the composite images that had red/green fluorescence values at least 0.1% of the starting concentration was then calculated, and this calculation was used as a proxy of true coverage; and determined the incidence of co-localization of the red and green fluorescence greater than chance. […]
At predetermined time points, the animals were imaged with a modified RetCam II system (Clarity Medical Systems, Pleasanton, Calif.). […] The built-in fluorescein attachment was used to capture green fluorescence. For the red fluorescence, green light was generated by placing a 575±50 nm bandpass filter (Edmunds Optics) in line with the fiber optic line. A red-emission filter (610±10 nm, Omega Optical, Brattleboro, Vt.) was placed over the camera to capture red fluorescence. […]

SMILES	diffusivity [1]	area of the visible SCS occupied (SCS of live rabbits [2])	total clearance of fluorescein from the SCS (rabbit SCS in vivo [3]; injected in 5% CMC solution)	total clearance of fluorescein from the SCS (rabbit SCS in vivo [3]; injected in HBSS)	ratio of area covered by fluorescein versus particles [4]	fluorescein exited via perivascular drainage around the vortex vein (SCS of live rabbits [5])	fluorescein exited via the injection site (SCS of live rabbits [5])	fluorescein found in blood (SCS of live rabbits [5])	fluorescein passed transsclerally to the subconjunctival space (anterior and posterior combined) (SCS of live rabbits [5])	fluorescein still within tissue (sclera, choroid, SCS, etc.), of total injected (SCS of live rabbits [5])	fluorescein unaccounted for (SCS of live rabbits [5])	clearance time constant (τclearance) (SCS of live rabbits [6]; exponential decay fit of fundus fluorescence)	total clearance time from SCS (SCS of live rabbits [6]; fluorescence no longer visible)	peak area coverage of the fluorescent species (of visible SCS area) (rabbit SCS in vivo [7]; 50 μL SCS injection in HBSS)	total clearance of the fluorescently-tagged formulation excipient from the SCS (rabbit SCS in vivo [7]; HBSS = fluorescein in HBSS)
C=C(CC)C(=O)c1ccc(OCC(=O)O)c(Cl)c1Cl [ethacrynic acid]	5×10^−6 cm^2/s														
O=C1OC2(c3ccc(O)cc3Oc3cc(O)ccc32)c2ccccc21 [fluorescein]		56±6%	2.7 ± 0.7 days	0.33 ± 0.05 days	2.05±0.24	2.5±0.3%	1.3±4%	6.3±4%	15±0.3%	46±18%	About 28%	4.3 ± 0.4 h	≤ 24 h	66%	≤ 2 days
